Results on one compound are retold here after patent publication US20250345318A1, “COMPOUND AND USE THEREOF IN PREVENTING OR TREATING RADIATION DAMAGE” (SIMCERE PHARMACEUTICAL CO., LTD., priority 2022, published 2025).

Assay [1] deals with C57BL/6 male mice. The assay can be described thus: Survival of mice receiving total body X-ray irradiation (Example 1). Format: in vivo. The protocol: C57BL/6 male mice (24.8±1.6 g in body weight) aged 10 weeks were divided into two groups of 11 mice each. After acclimating to the environment, JAC4 (100 mg/kg) or an equal volume of vehicle (polyethylene glycol:ethanol:physiological saline=47.5:7.5:50, v/v/v) was orally administered to the mice once daily for 7 consecutive days. After that, the mice were subjected to total body X-ray irradiation (6.5 Gy) and JAC4 or vehicle treatment was continued. After 3 days, the administration of JAC4 or vehicle was discontinued. The status was observed daily and the body weights of the mice were recorded.

The test system of assay [2] is JWA. The assay can be described thus: JWA expression in small intestine by Western blot (Example 4). The class given is in vivo, mice. To be noted: small intestine tissue; JAC4 100 mg/kg oral, 7 days before and 4 days after TBI 6 Gy. The method, then: C57BL/6 male mice (24.8±1.6 g in body weight) aged 10 weeks were divided into 2 groups. After acclimating to the environment, JAC4 (100 mg/kg) or an equal volume of vehicle (polyethylene glycol:ethanol:physiological saline=47.5:7.5:50, v/v/v) was orally administered to the mice once daily for 7 consecutive days. After that, the mice were subjected to total body X-ray irradiation (6 Gy) and JAC4 or vehicle treatment was continued for 4 days, after which small intestine tissues were collected. The expression levels of JWA in the small intestine were detected by Western blot, with β-actin as the reference. Adobe photoshop CC was used to measure the grayscale value of JWA/β-actin in panel A for statistical analysis (** p<0.01).
The Western blot procedures are as follows:
1. Protein sample preparation: Proper volumes of protein sample solutions were mixed with physiological saline to give […] solutions at a volume of 16 μL, and 4 μL of 5×SDS sample buffer was added. The mixture was uniformly mixed, centrifuged at 1000×g for 10 s, and boiled at 100° C. for 5 min. The samples were cooled at room temperature and then preserved in a −20° C. freezer.
(1) Lower separating gel: The glass plates and gel cassette were assembled while ensuring that the bottom of the glass plates was sealed to prevent leakage of the gel. […]
On the technique in general: In western blotting, separated proteins are transferred to a membrane and probed.

In assay [3] the test system is NF-κB. In words: NF-κB nuclear translocation by Western blot, BEAS-2B (Example 22). Format: cell-based, human. Particulars: JAC4 in combination with X-ray. An excerpt:
The production of ROS may lead to the activation of NF-κB, promote the translocation of NF-κB to the cell nucleus, and mediate various inflammatory responses. The nuclear and cytoplasmic proteins in BEAS-2B cells in all groups were separated.

Take `c1ccc(CSc2nnc(C3COc4ccccc4O3)o2)nc1` (stereo not drawn) [JAC4]: the “mean survival after radiation” value in assay [1] (JAC4 100 mg/kg oral once daily, 7 days before to 3 days after total body X-ray 6.5 Gy, observation day 30) was 17.9 ± 8.4 days. In addition, the “number of mice died” value in assay [1] (JAC4 100 mg/kg oral, TBI 6.5 Gy, 11 mice per group) is 6 mice. In addition, the “number of mice survived” value in assay [1] (JAC4 100 mg/kg oral, TBI 6.5 Gy, 11 mice per group, vehicle group all dead on day 12) amounted to 5 mice. The “weight loss after radiation” value in assay [1] (JAC4 100 mg/kg oral, TBI 6.5 Gy, vs vehicle) is recorded as “slower”. Besides, the “mean grayscale value of JWA expression (JWA/β-actin)” value in assay [2] was found to be 0.72±0.13. Moreover, the “X-ray-induced increase of NF-κB nuclear expression” value in assay [3] is reported as “inhibited”.
